# Measured values: patent US6617166B2, “Measurement of accelerated whole blood clotting time” (Prophylaxis Limited, priority 1999, dated 2003)
# Where “and” joins values, the source holds several entries; their conditions need not be identical. Identical values can stand only once. Marks after values point to notes of the source that are not given here.
# Tests used:
# [1] = system: recalcified citrated whole blood; experiment: Accelerated whole blood clotting time (AWBCT), recalcified citrated whole blood (RCCWB); assay type: cell-based
# Procedure: Comparison of the results using native blood and citrated blood was made. 9 parts of citrated blood was added to 1 part calcium n chloride 133 mM, mixed and aliquotes of the recalcified citrated blood added to the wells of the coagulometer containing duplicates of saline control and dilutions of collagen. A concentration of […] calcium chloride is considered to be optimal; but concentrations in the range of, for example, 110-140 mM may be used. However, it should be noted that the length and un-reliability of coagulation times increase with concentrations further from the optimum, especially with higher values.
# (§1) Whilst native blood is tested immediately after collection, for example, within two minutes, citrated blood may be stored for a longer period, before being recalcified immediately before the test is conducted. The interval between blood collection and testing may be on the order of one hour. It should be noted that shorter collection intervals give more reliable results.
# (§2) The test is performed on native freshly drawn venous blood, or recalcified citrated blood or heparinised blood.
# (§3) 100 μL of saline control or a range of concentration of a platelet agonists are added to the wells of a coagulometer and then 200 μL of native or RCCWB whole blood added and the coagulation time recorded. The potential agonists are; collagen, ADP, adrenalin, platelet activating factor, thrombin. It is anticipated that the agonist appropriate for specific roles will emerge in the course of clinical studies.
# (§4) Numbers are the time to coagulation in seconds. The results given are the averages of duplicates, unless otherwise indicated by an asterix, (corresponding to single coagulation times where spurious results have not been averaged).
# native whole blood = experiment: Accelerated whole blood clotting time (AWBCT), native blood; assay type: cell-based
# Procedure: as §1, §2, §3, §4
compound,measurement,setting,value
Heparin,time to coagulation (AWBCT),"[1]; RCCWB + Heparin 1.25 u/ml, collagen 0.125 mg/ml",325* seconds
same,time to coagulation (AWBCT),"[1]; RCCWB + Heparin 1.25 u/ml, collagen 0.25 mg/ml",302 s
same,time to coagulation (AWBCT),"[1]; RCCWB + Heparin 1.25 u/ml, collagen 0.5 mg/ml",71 s
same,time to coagulation (AWBCT),"[1]; RCCWB + Heparin 1.25 u/ml, collagen 1.0 mg/ml",54 s
same,time to coagulation (AWBCT),"[1]; RCCWB + Heparin 1.25 u/ml, saline",500+ seconds
same,time to coagulation (AWBCT),"[1]; RCCWB + Heparin 2.5 u/ml, collagen 0.125 mg/ml",340 s
same,time to coagulation (AWBCT),"[1]; RCCWB + Heparin 2.5 u/ml, collagen 0.25 mg/ml",405 s
same,time to coagulation (AWBCT),"[1]; RCCWB + Heparin 2.5 u/ml, collagen 0.5 mg/ml",61 s
same,time to coagulation (AWBCT),"[1]; RCCWB + Heparin 2.5 u/ml, collagen 1.0 mg/ml",41 s
same,time to coagulation (AWBCT),"[1]; RCCWB + Heparin 2.5 u/ml, saline",600+ seconds
same,time to coagulation (AWBCT),"[1]; RCCWB, Heparin 5.0 u/ml, collagen 0.125 mg/ml",600+ seconds
same,time to coagulation (AWBCT),"[1]; RCCWB, Heparin 5.0 u/ml, collagen 0.25 mg/ml",600+ seconds
same,time to coagulation (AWBCT),"[1]; RCCWB, Heparin 5.0 u/ml, collagen 0.5 mg/ml",48 s
same,time to coagulation (AWBCT),"[1]; RCCWB, Heparin 5.0 u/ml, collagen 1.0 mg/ml",31 s
same,time to coagulation (AWBCT),"[1]; RCCWB, Heparin 5.0 u/ml, saline",600+ seconds
same,time to coagulation (AWBCT),"[1]; RCCWB, Heparin 10 u/ml, collagen 0.125 mg/ml",600+ seconds
same,time to coagulation (AWBCT),"[1]; RCCWB, Heparin 10 u/ml, collagen 0.25 mg/ml",600+ seconds
same,time to coagulation (AWBCT),"[1]; RCCWB, Heparin 10 u/ml, collagen 0.5 mg/ml",34 s
same,time to coagulation (AWBCT),"[1]; RCCWB, Heparin 10 u/ml, collagen 1.0 mg/ml",27 s
same,time to coagulation (AWBCT),"[1]; RCCWB, Heparin 10 u/ml, saline",600+ seconds
CC(=O)Oc1ccccc1C(=O)O [Aspirin],time to coagulation (AWBCT),"[1]; RCCWB, aspirin 40 μg/ml, collagen 0.125 mg/ml, collection interval +135 min",275 s
same,time to coagulation (AWBCT),"[1]; RCCWB, aspirin 40 μg/ml, collagen 0.25 mg/ml, collection interval +135 min",274 s
same,time to coagulation (AWBCT),"[1]; RCCWB, aspirin 40 μg/ml, collagen 0.5 mg/ml, collection interval +135 min",216 s
same,time to coagulation (AWBCT),"[1]; RCCWB, aspirin 40 μg/ml, collagen 1.0 mg/ml, collection interval +135 min",184 s
same,time to coagulation (AWBCT),"[1]; RCCWB, aspirin 40 μg/ml, saline, collection interval +135 min",500 s
same,time to coagulation (AWBCT),"[1]; RCCWB, aspirin 80 μg/ml, collagen 0.125 mg/ml, collection interval +106 min",224 s
same,time to coagulation (AWBCT),"[1]; RCCWB, aspirin 80 μg/ml, collagen 0.25 mg/ml, collection interval +106 min",236 s
same,time to coagulation (AWBCT),"[1]; RCCWB, aspirin 80 μg/ml, collagen 0.5 mg/ml, collection interval +106 min",218* seconds
same,time to coagulation (AWBCT),"[1]; RCCWB, aspirin 80 μg/ml, collagen 1.0 mg/ml, collection interval +106 min",212 s
same,time to coagulation (AWBCT),"[1]; RCCWB, aspirin 80 μg/ml, saline, collection interval +106 min",468 s
collagen,time to coagulation (AWBCT),native whole blood; collagen 0.125 mg/ml,178 s and 134 s and 140 s and 149 s
same,time to coagulation (AWBCT),native whole blood; collagen 0.25 mg/ml,162 s and 111 s and 125 s and 137 s
same,time to coagulation (AWBCT),native whole blood; collagen 1.0 mg/ml,34 seconds and 28* seconds and 24 seconds and 29 seconds
same,time to coagulation (AWBCT),"[1]; RCCWB 50 mins later, collagen 0.125 mg/ml",190 s
same,time to coagulation (AWBCT),"[1]; RCCWB 50 mins later, collagen 0.25 mg/ml",184 s
same,time to coagulation (AWBCT),"[1]; RCCWB 50 mins later, collagen 0.5 mg/ml",181 s
same,time to coagulation (AWBCT),"[1]; RCCWB 50 mins later, collagen 1.0 mg/ml",55 s
same,time to coagulation (AWBCT),"[1]; RCCWB 75 mins later, collagen 0.125 mg/ml",202 s
same,time to coagulation (AWBCT),"[1]; RCCWB 75 mins later, collagen 0.25 mg/ml",209 s
same,time to coagulation (AWBCT),"[1]; RCCWB 75 mins later, collagen 0.5 mg/ml",70 s
same,time to coagulation (AWBCT),"[1]; RCCWB 75 mins later, collagen 1.0 mg/ml",50 s
same,time to coagulation (AWBCT),"[1]; RCCWB, collagen 0.125 mg/ml",166 s and 159 s and 177 s and 178 s
same,time to coagulation (AWBCT),"[1]; RCCWB, collagen 0.25 mg/ml",185 seconds and 151 seconds and 165 seconds and 161* seconds
same,time to coagulation (AWBCT),"[1]; RCCWB, collagen 1.0 mg/ml",44 s and 49 s and 39 s and 56 s
Low Molecular Weight Heparin [LMWH],time to coagulation (AWBCT),"native whole blood; LMWH 0.25 u/ml, collagen 0.125 mg/ml",233 s
same,time to coagulation (AWBCT),"native whole blood; LMWH 0.25 u/ml, collagen 0.25 mg/ml",224 s
same,time to coagulation (AWBCT),"native whole blood; LMWH 0.25 u/ml, collagen 0.5 mg/ml",204* seconds
same,time to coagulation (AWBCT),"native whole blood; LMWH 0.25 u/ml, collagen 1.0 mg/ml",64 s
same,time to coagulation (AWBCT),"native whole blood; LMWH 0.25 u/ml, saline",500+ seconds
same,time to coagulation (AWBCT),"native whole blood; LMWH 0.5 u/ml, collagen 0.125 mg/ml",226 s
same,time to coagulation (AWBCT),"native whole blood; LMWH 0.5 u/ml, collagen 0.25 mg/ml",228 s
same,time to coagulation (AWBCT),"native whole blood; LMWH 0.5 u/ml, collagen 0.5 mg/ml",41 s
same,time to coagulation (AWBCT),"native whole blood; LMWH 0.5 u/ml, collagen 1.0 mg/ml",46 s
same,time to coagulation (AWBCT),"native whole blood; LMWH 0.5 u/ml, saline",500+ seconds
same,time to coagulation (AWBCT),"native whole blood; LMWH 1.0 u/ml, collagen 0.125 mg/ml",318 s
same,time to coagulation (AWBCT),"native whole blood; LMWH 1.0 u/ml, collagen 0.25 mg/ml",259 s
same,time to coagulation (AWBCT),"native whole blood; LMWH 1.0 u/ml, collagen 0.5 mg/ml",48* seconds
same,time to coagulation (AWBCT),"native whole blood; LMWH 1.0 u/ml, collagen 1.0 mg/ml",27* seconds
same,time to coagulation (AWBCT),"native whole blood; LMWH 1.0 u/ml, saline",500+ seconds
same,time to coagulation (AWBCT),"native whole blood; LMWH 2.0 u/ml, collagen 0.125 mg/ml",500+ seconds
same,time to coagulation (AWBCT),"native whole blood; LMWH 2.0 u/ml, collagen 0.25 mg/ml",500+ seconds
same,time to coagulation (AWBCT),"native whole blood; LMWH 2.0 u/ml, collagen 0.5 mg/ml",500+ seconds
same,time to coagulation (AWBCT),"native whole blood; LMWH 2.0 u/ml, collagen 1.0 mg/ml",295 s
same,time to coagulation (AWBCT),"native whole blood; LMWH 2.0 u/ml, saline",500+ seconds
"Nc1ncnc2c1ncn2[C@@H]1O[C@H](COP(=O)(O)OP(=O)(O)O)[C@@H](O)[C@H]1O [ADP, adenosine diphosphate]",time to coagulation (AWBCT),native whole blood; ADP 6.25 μM,265 s
same,time to coagulation (AWBCT),native whole blood; ADP 12.5 μM,269 s
same,time to coagulation (AWBCT),native whole blood; ADP 25 μM,272 s
same,time to coagulation (AWBCT),native whole blood; ADP 50 μM,255 s
same,time to coagulation (AWBCT),"[1]; recalcified whole blood, ADP 12.5 μM, collection interval +65 mins",329 s
same,time to coagulation (AWBCT),"[1]; recalcified whole blood, ADP 25 μM, collection interval +65 mins",358 s
same,time to coagulation (AWBCT),"[1]; recalcified whole blood, ADP 50 μM, collection interval +65 mins",348 s
same,time to coagulation (AWBCT),"[1]; recalcified whole blood, ADP 100 μM, collection interval +65 mins",341 s
